Test results: patent publication US20250324973A1, “Pest Control Composition and Control Method” (priority 2021, published 2025)

Columns and labels:
Assay type in all cases: in vivo
[1] = test system: small brown planthopper, susceptible line or reduced susceptible line; assay: Test Example 20: spray on rice seedlings, mortality rate; details: small brown planthopper 3rd-instar larvae on rice; 0.05-200 ppm; six days
Protocol: Natural pyrethrin or MX is formulated according to the method described in the Formulation Example 1. Similarly, flupyradifuron and flupyrimin are formulated according to the method described in the Formulation Example 1, respectively. Each of the above formulations is diluted with water containing 0.05% by volume of a spreading agent (product name: Shindain (registered trademark)) so that the concentration of active ingredient may be 0.05 ppm, 0.2 ppm, 0.8 ppm, 3.1 ppm, 12.5 ppm, 50 ppm or 200 ppm. Admire water dispersible granule (Active ingredient: imidacloprid, manufactured by Bayer CropScience K.K.), TREBON emulsifiable concentrate (Active ingredient: etofenprox, manufactured by Mitsui Chemicals Agro, Inc.), PRINCE flowable (Active ingredient: fipronil, manufactured by BASF Japan Ltd.), KIRAPPU flowable (Active ingredient: ethiprole, manufactured by Bayer CropScience K.K.), and APPLAUD flowable (Active ingredient: buprofezin, manufactured by NIHON NOHYAKU CO., LTD), which are commercial products, are diluted with water containing 0.05% by volume of a spreading agent (product name: Shindain (registered trademark)), respectively so that the concentration of active ingredient may be 0.05 ppm, 0.2 ppm, 0.8 ppm, 3.1 ppm, 12.5 ppm, 50 ppm or 200 ppm. The resulting dilution is sprayed to seedlings (at the 2.5-leaf stage) of rice (Oryza sativa) planted in a container at a rate of 10 ml/seedling. After that, 20 3rd-instar larvae of small brown planthopper of a susceptible line (a line that have been bred successively in Health & Crop Sciences Research Laboratory of Sumitomo Chemical Co., Ltd.) or small brown planthopper of a reduced susceptible line (a line that have been bred successively without selection after collecting in Nagasaki prefecture in 2016) are released thereto. Six days later, the number of surviving insects is observed, and a mortality rate of insect is calculated by the formula 2). On the other hand, rice is cultivated in the same way as in the treated plot, except that the dilution containing natural pyrethrin or MX is not sprayed (this is referred to as an untreated plot).

[2] = test system: white-backed planthopper, susceptible line or reduced susceptible line; assay: Test Example 21: spray on rice seedlings, mortality rate; details: white-backed planthopper 3rd-instar larvae on rice; 0.05-200 ppm; six days
Protocol: Natural pyrethrin or MX is formulated according to the method described in the Formulation Example 1. Each of the above formulations is diluted with water containing 0.05% by volume of a spreading agent (product name: Shindain (registered trademark)) so that the concentration of active ingredient may be 0.05 ppm, 0.2 ppm, 0.8 ppm, 3.1 ppm, 12.5 ppm, 50 ppm or 200 ppm. PRINCE flowable (Active ingredient: fipronil, manufactured by BASF Japan Ltd.) and KIRAPPU flowable (Active ingredient: ethiprole, manufactured by Bayer CropScience K.K.), which are commercial products, are diluted with water containing 0.05% by volume of a spreading agent (product name: Shindain (registered trademark)), respectively so that the concentration of active ingredient may be 0.05 ppm, 0.2 ppm, 0.8 ppm, 3.1 ppm, 12.5 ppm, 50 ppm or 200 ppm. The resulting dilution is sprayed to seedlings (at the 2.5-leaf stage) of rice planted in a container at a rate of 10 ml/seedling. […] Six days later, the number of surviving insects is observed, and a mortality rate of insect is calculated by the formula 2). […]

[3] = test system: cotton aphids, susceptible line or reduced susceptible line; assay: Test Example 17: spray on cucumber seedlings, control value; details: 0.05-200 ppm, 10 ml/seedling, six days after spraying
Excerpt: Natural pyrethrin or MX is formulated according to the method described in the Formulation Example 1. Similarly, triflumezopyrim, flupyradifuron, or flupyrimin is formulated according to the method described in the Formulation Example 1, respectively. Each dilution is obtained by diluting each of the above formulations with water containing 0.05% by volume of a spreading agent (product name: Shindain (registered trademark)) so that the concentration of active ingredient may be 0.05 ppm, 0.2 ppm, 0.8 ppm, 3.1 ppm, 12.5 ppm, 50 ppm or 200 ppm. Each dilution is obtained by diluting Admire wettable powder (Active ingredient: imidacloprid, manufactured by Bayer CropScience K.K.) and Actara water dispersible granule (Active ingredient: thiamethoxam, manufactured by Syngenta Japan K.K.), which are commercial products, with water containing 0.05% by volume of a spreading agent (product name: Shindain (registered trademark)) so that the concentration of active ingredient may be 0.05 ppm, 0.2 ppm, 0.8 ppm, 3.1 ppm, 12.5 ppm, 50 ppm or 200 ppm. Cucumber seedlings (at the second true leaf unfolding stage) planted in a container are inoculated with 30 cotton aphids (including all growth stages) which are a susceptible line (a line that have been bred successively in Health & Crop Sciences Research Laboratory of Sumitomo Chemical Co., Ltd.) or a reduced susceptible line (a line that have been bred successively without selection after collecting in Miyazaki prefecture in 2016). One day later, the resulting dilution is sprayed to the seedlings at a rate of 10 ml/seedling. On the other hand, cucumbers are cultivated in the same way as in the treated plot, except that the dilution containing natural pyrethrin or MX is not sprayed (this is referred to as an untreated plot). Six days after spraying, the number of surviving insects is observed, and a control value is calculated by formula 1).
Letters in the formula have the following meanings • Cb: The number of insects tested in the untreated plot • Cai: The number of surviving insects at the time of observation in the untreated plot • Tb: The number of tested insects in the treated plot • Tai: The number of surviving insects at the time of observation in the treated plot

[4] = test system: brown planthopper, susceptible line or reduced susceptible line; assay: Test Example 18: spray on rice seedlings, mortality rate; details: brown planthopper 3rd-instar larvae on rice; 0.05-200 ppm; six days
Protocol: Natural pyrethrin or MX is formulated according to the method described in the Formulation Example 1. Similarly, flupyradifuron and flupyrimin are formulated according to the method described in the Formulation Example 4, respectively. Each of the above formulations is diluted with water containing 0.05% by volume of a spreading agent (product name: Shindain (registered trademark)) so that the concentration of active ingredient may be 0.05 ppm, 0.2 ppm, 0.8 ppm, 3.1 ppm, 12.5 ppm, 50 ppm or 200 ppm. Admire wettable powder (Active ingredient: imidacloprid, manufactured by Bayer CropScience K.K.), which is a commercial product, is diluted with water containing 0.05% by volume of a spreading agent (product name: Shindain (registered trademark)) so that the concentration of active ingredient may be 0.05 ppm, 0.2 ppm, 0.8 ppm, 3.1 ppm, 12.5 ppm, 50 ppm or 200 ppm. The resulting dilution is sprayed to seedlings (at the 2.5-leaf stage) of rice (Oryza sativa) planted in a container at a rate of 10 ml/seedling. After that, 20 3rd-instar larvae of brown planthopper of a susceptible line (a line that have been bred successively in Health & Crop Sciences Research Laboratory of Sumitomo Chemical Co., Ltd.) or brown planthopper of a reduced susceptible line (a line that have been bred successively without selection after collecting in Nagasaki prefecture in 2016) are released thereto. Six days later, the number of surviving insects is observed, and a mortality rate of insect is calculated by formula 2). On the other hand, rice is cultivated in the same way as in the treated plot, except that the dilution containing natural pyrethrin or MX is not sprayed (this is referred to as an untreated plot).

[5] = test system: diamondback moth, susceptible line or reduced susceptible line; assay: Test Example 19: spray on cabbage seedlings, mortality rate; details: diamondback moth 3rd-instar larvae on cabbage; 0.05-200 ppm; five days
Protocol: Natural pyrethrin or MX is formulated according to the method described in the Formulation Example 1. Each of the above formulations is diluted with water containing 0.05% by volume of a spreading agent (product name: Shindain (registered trademark)) so that the concentration of active ingredient may be 0.05 ppm, 0.2 ppm, 0.8 ppm, 3.1 ppm, 12.5 ppm, 50 ppm or 200 ppm. Phoenix water dispersible granule (Active ingredient: flubendiamide, manufactured by NIHON NOHYAKU CO., LTD), PREVATHON flowable 5 (Active ingredient: chlorantraniliprole, manufactured by Nissan Chemical Corporation) and BENEVIA OD (Active ingredient: cyantraniliprole, manufactured by KUMIAI CHEMICAL INDUSTRY CO., LTD.), which are commercial products, are diluted with water containing 0.05% by volume of a spreading agent (product name: Shindain (registered trademark)), respectively so that the concentration of active ingredient may be 0.05 ppm, 0.2 ppm, 0.8 ppm, 3.1 ppm, 12.5 ppm, 50 ppm or 200 ppm. The resulting dilution is sprayed to seedlings (at the 3rd to 4th true leaf unfolding stage) of cabbage (Brassicae oleracea) planted in a container at a rate of 20 ml/seedling. After that, 10 3rd-instar larvae of diamondback moth of a susceptible line (a line that have been bred successively in Health & Crop Sciences Research Laboratory of Sumitomo Chemical Co., Ltd.) or diamondback moth of a reduced susceptible line (a line that have been bred successively without selection after collecting in Kumamoto prefecture in 2016) are released thereto. Five days later, the number of surviving insects is counted, and a mortality rate of insect is calculated by formula 3). On the other hand, cabbages are cultivated in the same way as in the treated plot, except that the dilution containing natural pyrethrin or MX is not sprayed (this is referred to as an untreated plot).

`N#Cc1nn(-c2c(Cl)cc(C(F)(F)F)cc2Cl)c(N)c1[S+]([O-])C(F)(F)F` (centres unmarked) [fipronil] was tested, and the “effect (mortality rate) on the reduced susceptible line compared with the susceptible line” value [1] was “low compared with that on the sensitive line” and the “effect (mortality rate) on the reduced susceptible line compared with the susceptible line” value [2] was “low compared with that on the sensitive line”.

With `O=C(N=c1ccccn1Cc1ccc(Cl)nc1)C(F)(F)F` [flupyrimin] the “effect (mortality rate) on the reduced susceptible line compared with the susceptible line” value [1] was “low compared with that on the sensitive line”, the “effect (control value) on the reduced susceptible line compared with the susceptible line” value [3] was “low compared with that on the sensitive line” and the “effect (mortality rate) on the reduced susceptible line compared with the susceptible line” value [4] was “low compared with that on the sensitive line”.

For `O=C1C=C(N(Cc2ccc(Cl)nc2)CC(F)F)CO1` [flupyradifuron], the “effect (mortality rate) on the reduced susceptible line compared with the susceptible line” value [1] was “low compared with that on the sensitive line”, the “effect (control value) on the reduced susceptible line compared with the susceptible line” value [3] was “low compared with that on the sensitive line” and the “effect (mortality rate) on the reduced susceptible line compared with the susceptible line” value [4] was “low compared with that on the sensitive line”.

With `Cc1cc(C(F)(C(F)(F)F)C(F)(F)F)ccc1NC(=O)c1cccc(I)c1C(=O)NC(C)(C)CS(C)(=O)=O` [flubendiamide] the “effect (mortality rate) on the reduced susceptible line compared with the susceptible line” value [5] was “low compared with that on the sensitive line”.

`O=c1c(-c2cccc(C(F)(F)F)c2)c([O-])[n+](Cc2cncnc2)c2ccccn12` [triflumezopyrim] was tested, and the “effect (control value) on the reduced susceptible line compared with the susceptible line” value [3] was “low compared with that on the sensitive line”.

`O=[N+]([O-])NC1=NCCN1Cc1ccc(Cl)nc1` [imidacloprid] was tested, and the “effect (mortality rate) on the reduced susceptible line compared with the susceptible line” value [1] was “low compared with that on the sensitive line”, the “effect (control value) on the reduced susceptible line compared with the susceptible line” value [3] was “low compared with that on the sensitive line” and the “effect (mortality rate) on the reduced susceptible line compared with the susceptible line” value [4] was “low compared with that on the sensitive line”.

In the case of `CC[S+]([O-])c1c(C#N)nn(-c2c(Cl)cc(C(F)(F)F)cc2Cl)c1N` (centres unmarked) [ethiprole], the “effect (mortality rate) on the reduced susceptible line compared with the susceptible line” value [1] is reported as “low compared with that on the sensitive line” and the “effect (mortality rate) on the reduced susceptible line compared with the susceptible line” value [2] is reported as “low compared with that on the sensitive line”.

For `CN1COCN(Cc2cnc(Cl)s2)/C1=N\[N+](=O)[O-]` [thiamethoxam], the “effect (control value) on the reduced susceptible line compared with the susceptible line” value [3] was “low compared with that on the sensitive line”.

`CNC(=O)c1cc(C#N)cc(C)c1NC(=O)c1cc(Br)nn1-c1ncccc1Cl` [cyantraniliprole] was tested, and the “effect (mortality rate) on the reduced susceptible line compared with the susceptible line” value [5] was “low compared with that on the sensitive line”.

In the case of `CCOc1ccc(C(C)(C)COCc2cccc(Oc3ccccc3)c2)cc1` [etofenprox], the “effect (mortality rate) on the reduced susceptible line compared with the susceptible line” value [1] is reported as “low compared with that on the sensitive line”.

In the case of `CNC(=O)c1cc(Cl)cc(C)c1NC(=O)c1cc(Br)nn1-c1ncccc1Cl` [chlorantraniliprole], the “effect (mortality rate) on the reduced susceptible line compared with the susceptible line” value [5] is reported as “low compared with that on the sensitive line”.

With `CC(C)N1C(=O)N(c2ccccc2)CS/C1=N\C(C)(C)C` [buprofezin] the “effect (mortality rate) on the reduced susceptible line compared with the susceptible line” value [1] was “low compared with that on the sensitive line”.
